{"source": "paper PMC12191028", "about": "“Preparation of Nanoparticle-Immobilized Gold Surfaces for the Reversible Conjugation of Neurotensin Peptide” (Biomolecules, 2025)", "key": {"NTSR2 antibody": {"target": "NTSR2 antibody", "experiment": "NTSR2 antibody–NTS(8–13) peptide binding affinity by microscale thermophoresis (MST)", "details": "Monolith NT.115 Pico, RED-NHS-labeled NTSR2 antibody 20 nM, PBS with 0.005% Tween-20, 20 min dark incubation, 16 serial dilutions from 0.5 mg/mL, free peptide in solution, n = 3, read-out: dissociation constant (Kd)", "protocol": "An RED-NHS 2nd generation protein labeling kit and Monolith NT.115 premium capillaries were obtained from NanoTemper Technologies (Munich, Germany). The binding affinity of the NTSR2 antibody–NTS(8–13) peptide interaction was evaluated using microscale thermophoresis (MST) with Monolith NT.115 Pico instrument (NanoTemper Technologies, Munich, Germany). The NTSR2 antibody was labeled with the Monolith protein labeling kit and RED-NHS 2nd generation kit and used as a target molecule in PBS with 0.005% Tween-20. Experiments were conducted using the Monolith NT.115 premium capillariesat Pico-RED 80% excitation power and medium MST power with thermophoresis. For the labeled NTSR2 antibody, a concentration of 20 nM was used, whereas for the NTS(8–13) peptide, 16 serial dilutions were prepared starting from 0.5 mg/mL. Dark incubation was performed for 20 min after mixing the target and ligand molecule. Triplicate results were analyzed using the M.O. affinity analysisv.2.3 software."}, "[1]": {"target": "high-affinity receptor (NTSR2)", "details": "binding affinity to its high-affinity receptor (NTSR2) according to the literature; ref [69]; cited from earlier work"}}}
{"substance": "RRPYIL [NTS(8–13), fragment of the neurotensin peptide (RRPYIL)]", "values": [{"measurement": "Kd", "setting": "NTSR2 antibody", "value": 32.9, "unit": "µM"}, {"measurement": "Kd", "setting": "[1]", "value": "0.005 to 0.007", "unit": "µM"}]}
